What was measured:
[1] = target: Bcl-2 WT (Homo sapiens, UniProt P10415); assay: Bcl-2 WT inhibition, fluorescence polarization (Flu-BIM tracer) binding assay; conditions: FP; 20 nM Bcl2, 5 nM Flu-BIM, 1 h incubation; read-out: Bcl-2 w.t. (FP)
[2] = system: MV-4-11 cells; assay: CCK-8 cell viability assay in MV-4-11 cells; type: cell-based; conditions: 10% FBS, 3 days
Summary of the method: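 MV-4-11 cells (20000/well) were exposed to serially diluted compound for 3 days at 37 °C. Viability was then measured with CCK-8 (1–4 h, absorbance 450 nm). IC50 was derived from readings normalized to vehicle.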

[3] = system: RS4; 11Bcl-2-G101V cells; assay: CellTiter-Glo (CTG) cell viability assay in RS4;11-Bcl-2-G101V cells; type: cell-based; conditions: 10% FBS, 3 days
Summary of the method: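 Engineered RS4;11 lines carrying Bcl-2 mutants, 10000 cells/well in RPMI-1640 with 10% FBS, exposed to serially diluted compound for 3 days at 37 °C, 5% CO2. Viability read by CellTiter-Glo luminescence, normalized to vehicle; IC50 calculated.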

[4] = system: RS4; 11Bcl-2-V156D cells; assay: CellTiter-Glo (CTG) cell viability assay in RS4;11-BCL2-V156D cells; type: cell-based; conditions: 10% FBS, 3 days
Procedure: (§1) RS4; 11Bcl-2-G101V, RS4; 11Bcl-2-D103E, RS4; 11Bcl-2-V156D and RS4; 11Bcl-2-G101V-D103E cells were obtained from Cobioer Biosciences. Cells were maintained in the RPMI-1640 medium with 10% FBS, 1% P/S and puromycin (1 μg/mL) at 37° C. and an atmosphere of 5% CO2.
(§2) • The effect of representative Compounds of the Disclosure on cell viability was determined using CellTiter-Glo® (CTG) luminescent cell viability assay (Promega, USA) according to the manufacturer's instructions. 95 μL of cell suspension (10000 cells/well) in culture medium were seeded into 96-well plates and cultured 4 hours. Each tested compound was serially diluted in blank culture medium, and 5 μL of the compound dilution was added to the corresponding well of the cell plate. After the addition of the tested compound, the cells were incubated at 37° C. in an atmosphere of 5% CO2 for 3 days. At the end of 3 days, 30 μL of CTG solution was added to each well of the plate and mix contents for 2 minutes on an orbital shaker. Allow the plate to incubate at room temperature for 15 mins to stabilize signal and record RLU on the Biotek plate reader. The readings were normalized to the vehicle cells, and the IC50 was calculated using GraphPad Prism 8 software.

[5] = system: RS4; 11Bcl-2-D103E cells; assay: CellTiter-Glo (CTG) cell viability assay in RS4;11-BCL2-D103E cells; type: cell-based; conditions: 10% FBS, 3 days
Procedure: as §1, §2

Bcl-2 WT, sequence (P10415 whole entry): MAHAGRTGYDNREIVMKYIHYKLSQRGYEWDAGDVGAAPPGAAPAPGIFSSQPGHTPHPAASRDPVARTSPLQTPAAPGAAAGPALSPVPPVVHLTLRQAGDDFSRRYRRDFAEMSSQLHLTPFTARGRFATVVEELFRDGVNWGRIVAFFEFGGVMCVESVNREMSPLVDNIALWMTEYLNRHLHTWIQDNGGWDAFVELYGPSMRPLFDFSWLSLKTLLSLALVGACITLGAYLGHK

Row | SMILES | IC50 [1] | IC50 ([2]; Homo sapiens, MV4-11, 72 h) | IC50 ([3]; 72 h) | IC50 ([4]; 72 h) | IC50 ([5]; 72 h) | IC50 [2] | IC50 [3] | IC50 [4] | IC50 [5]
1 | CC1(C)CCC(CN2CCN(c3ccc(C(=O)NS(=O)(=O)c4ccc(NC[C@H]5CC[C@](C)(O)CC5)c([N+](=O)[O-])c4)c(Oc4cnc5[nH]ccc5c4)c3)CC2)=C(c2cc(-c3c(F)cc(C(C)(C)O)cc3F)cs2)C1 [Example 63, 2-((1H-pyrrolo[2,3-b]pyridin-5-yl)oxy)-4-(4-((2-(4-(2,6-difluoro-4-(2-hydroxypropan-2-yl)phenyl)thiophen-2-yl)-4,4-dimethylcyclohex-1-en-1-yl)methyl)piperazin-1-yl)-N-((4-((((1r,4r)-4-hydroxy-4-methylcyclohexyl)methyl)amino)-3-nitrophenyl)sulfonyl)benzamide] | 0.0163 µM | 0.009 µM | 0.014 µM | 0.019 µM | 0.183 µM |  |  |  | 
2 | CC1(C)CCC(CN2CCN(c3ccc(C(=O)NS(=O)(=O)c4ccc(NCC5CCOCC5)c([N+](=O)[O-])c4)c(Oc4cnc5[nH]ccc5c4)c3)CC2)=C(c2ccc(Cl)cc2)C1 [ABT-199, Venetoclax, reference compound] |  | 0.038 µM | 2.69 µM | 0.671 µM | 1.51 µM |  |  |  | 
3 | O=C(NS(=O)(=O)c1ccc(NC[C@H]2COCCO2)c([N+](=O)[O-])c1)c1ccc(N2CCN(CC3=C(c4ccc(Cl)cc4)CC4(CCC4)CC3)CC2)cc1Oc1cnc2[nH]ccc2c1 [APG-2575] |  |  |  |  |  | 0.034 µM | 2.43 µM | 0.324 µM | 0.516 µM
4 | C[C@@H](O)c1cc(F)c(-c2csc(C3=C(CN4CCN(c5ccc(C(=O)NS(=O)(=O)c6ccc(NC[C@H]7CC[C@](C)(O)CC7)c([N+](=O)[O-])c6)c(Oc6cnc7[nH]ccc7c6)c5)CC4)CCC(C)(C)C3)c2)c(F)c1 [Example 83, 2-((1H-pyrrolo[2,3-b]pyridin-5-yl)oxy)-4-(4-((2-(4-(2,6-difluoro-4-((R)-1-hydroxyethyl)phenyl)thiophen-2-yl)-4,4-dimethylcyclohex-1-en-1-yl)methyl)piperazin-1-yl)-N-((4-((((1r,4r)-4-hydroxy-4-methylcyclohexyl)methyl)amino)-3-nitrophenyl)sulfonyl)benzamide] |  | 0.002 µM | 0.02 µM | 0.008 µM | 0.048 µM |  |  |  | 
5 | C[C@H](O)c1cc(F)c(-c2csc(C3=C(CN4CCN(c5ccc(C(=O)NS(=O)(=O)c6ccc(NC[C@H]7CC[C@](C)(O)CC7)c([N+](=O)[O-])c6)c(Oc6cnc7[nH]ccc7c6)c5)CC4)CCC(C)(C)C3)c2)c(F)c1 [Example 84, 2-((1H-pyrrolo[2,3-b]pyridin-5-yl)oxy)-4-(4-((2-(4-(2,6-difluoro-4-((S)-1-hydroxyethyl)phenyl)thiophen-2-yl)-4,4-dimethylcyclohex-1-en-1-yl)methyl)piperazin-1-yl)-N-((4-((((1r,4r)-4-hydroxy-4-methylcyclohexyl)methyl)amino)-3-nitrophenyl)sulfonyl)benzamide] |  | 0.007 µM | 0.07 µM | 0.008 µM | 0.098 µM |  |  |  | 
6 | Cc1sc(C2=C(CN3CCN(c4ccc(C(=O)NS(=O)(=O)c5ccc(NC[C@H]6CC[C@](C)(O)CC6)c([N+](=O)[O-])c5)c(Oc5cnc6[nH]ccc6c5)c4)CC3)CCC(C)(C)C2)cc1-c1c(F)cc(C(C)(C)O)cc1F [Example 81, 2-((1H-pyrrolo[2,3-b]pyridin-5-yl)oxy)-4-(4-((2-(4-(2,6-difluoro-4-(2-hydroxypropan-2-yl)phenyl)-5-methylthiophen-2-yl)-4,4-dimethylcyclohex-1-en-1-yl)methyl)piperazin-1-yl)-N-((4-((((1r,4r)-4-hydroxy-4-methylcyclohexyl)methyl)amino)-3-nitrophenyl)sulfonyl)benzamide] | 0.0346 µM | 0.27 µM | 1.71 µM |  |  |  |  |  | 

— US12577245B2, “Sulfonyl benzamide derivatives as Bcl-2 inhibitors” (ASCENTAGE PHARMA (SUZHOU) CO., LTD., priority 2021, dated 2026)
